In the supplement of paper PMC10307832:

What was measured:
Assay in all cases: relative viability (nuclei count vs DMSO), 5 days (fraction); higher = more cells survive
NCI-H322M = tested on: NCI-H322M
Outline: (§1)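 A single step with final 0.05% Triton X-100, 1% formaldehyde and 1 ug/ml Hoechst fixed the cells and stained nuclei 5 days after treatment. Lung cancer cell lines in 1536-well plates had been treated by pin tool the day after seeding with one drug alone or a fixed anchor-drug dose plus five library-drug doses (not always all listed) in √10 steps, and nuclei were counted on 4× images. Relative viability is the ratio of nuclei in treated wells to nuclei in vehicle wells, taken as the median of duplicate plates.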

PC-14 = tested on: PC-14
Outline: as §1

SW 1573 = tested on: SW 1573
Outline: as §1

NCI-H2085 = tested on: NCI-H2085
Outline: as §1

NCI-H647 = tested on: NCI-H647
Outline: as §1

LXF-289 = tested on: LXF-289
Outline: as §1

NCI-H661 = tested on: NCI-H661
Outline: as §1

NCI-H2009 = tested on: NCI-H2009
Outline: as §1

LCLC-97TM1 = tested on: LCLC-97TM1
Outline: as §1

NCI-H1993 = tested on: NCI-H1993
Outline: as §1

NCI-H2023 = tested on: NCI-H2023
Outline: as §1

NCI-H1734 = tested on: NCI-H1734
Outline: as §1

HOP-62 = tested on: HOP-62
Outline: as §1

NCI-H727 = tested on: NCI-H727
Outline: as §1

NCI-H2126 = tested on: NCI-H2126
Outline: as §1

EMC-BAC-2 = tested on: EMC-BAC-2
Outline: as §1

H3255 = tested on: H3255
Outline: as §1

NCI-H2347 = tested on: NCI-H2347
Outline: as §1

NCI-H1915 = tested on: NCI-H1915
Outline: as §1

EPLC-272H = tested on: EPLC-272H
Outline: as §1

SK-LU-1 = tested on: SK-LU-1
Outline: as §1

Compound Cc1sc2c(c1C)C(c1ccc(Cl)cc1)=N[C@@H](CC(=O)OC(C)(C)C)c1nnc(C)n1-2 [JQ1] + CC(=O)c1c(C)c2cnc(Nc3ccc(N4CCNCC4)cn3)nc2n(C2CCCC2)c1=O [Palbociclib] (partner 0.5 µM) has a relative viability (NCI-H322M; first compound 0.04 µM) of 0.477, a relative viability (NCI-H322M; first compound 0.1265 µM) of 0.491 and a relative viability (NCI-H322M; first compound 0.4 µM) of 0.428. The relative viability (NCI-H322M; first compound 1.265 µM) was 0.385, the relative viability (NCI-H322M; first compound 4 µM) was 0.406 and the relative viability (PC-14; first compound 0.04 µM) was 0.486. For the same compound, the relative viability (PC-14; first compound 0.1265 µM) was 0.238, the relative viability (PC-14; first compound 0.4 µM) was 0.221 and the relative viability (PC-14; first compound 1.265 µM) was 0.116. For the same compound, the relative viability (PC-14; first compound 4 µM) was 0.104, the relative viability (SW 1573; first compound 0.04 µM) was 0.372 and the relative viability (SW 1573; first compound 0.1265 µM) was 0.274. It also gave a relative viability (SW 1573; first compound 0.4 µM) of 0.202, a relative viability (SW 1573; first compound 1.265 µM) of 0.129 and a relative viability (SW 1573; first compound 4 µM) of 0.118. It also gave a relative viability (NCI-H2085; first compound 0.04 µM) of 0.458, a relative viability (NCI-H2085; first compound 0.1265 µM) of 0.427 and a relative viability (NCI-H2085; first compound 0.4 µM) of 0.508. For the same compound, the relative viability (NCI-H2085; first compound 1.265 µM) was 0.418, the relative viability (NCI-H2085; first compound 4 µM) was 0.462 and the relative viability (NCI-H647; first compound 0.04 µM) was 0.372. It also gave a relative viability (NCI-H647; first compound 0.1265 µM) of 0.231, a relative viability (NCI-H647; first compound 0.4 µM) of 0.13 and a relative viability (NCI-H647; first compound 1.265 µM) of 0.113. The relative viability (NCI-H647; first compound 4 µM) was 0.0792, the relative viability (LXF-289; first compound 0.04 µM) was 0.562 and the relative viability (LXF-289; first compound 0.1265 µM) was 0.591. It also gave a relative viability (LXF-289; first compound 0.4 µM) of 0.576, a relative viability (LXF-289; first compound 1.265 µM) of 0.426 and a relative viability (LXF-289; first compound 4 µM) of 0.353. The relative viability (NCI-H661; first compound 0.04 µM) was 0.406, the relative viability (NCI-H661; first compound 0.1265 µM) was 0.369 and the relative viability (NCI-H661; first compound 0.4 µM) was 0.424. For the same compound, the relative viability (NCI-H661; first compound 1.265 µM) was 0.406, the relative viability (NCI-H661; first compound 4 µM) was 0.397 and the relative viability (NCI-H2009; first compound 0.04 µM) was 0.181. For the same compound, the relative viability (NCI-H2009; first compound 0.1265 µM) was 0.137, the relative viability (NCI-H2009; first compound 0.4 µM) was 0.199 and the relative viability (NCI-H2009; first compound 1.265 µM) was 0.158. The relative viability (NCI-H2009; first compound 4 µM) was 0.156, the relative viability (LCLC-97TM1; first compound 0.04 µM) was 0.255 and the relative viability (LCLC-97TM1; first compound 0.1265 µM) was 0.159. The relative viability (LCLC-97TM1; first compound 0.4 µM) was 0.15, the relative viability (LCLC-97TM1; first compound 1.265 µM) was 0.0928 and the relative viability (LCLC-97TM1; first compound 4 µM) was 0.0931. For the same compound, the relative viability (NCI-H1993; first compound 0.04 µM) was 0.772, the relative viability (NCI-H1993; first compound 0.1265 µM) was 0.734 and the relative viability (NCI-H1993; first compound 0.4 µM) was 0.613. For the same compound, the relative viability (NCI-H1993; first compound 1.265 µM) was 0.613, the relative viability (NCI-H1993; first compound 4 µM) was 0.714 and the relative viability (NCI-H2023; first compound 0.04 µM) was 0.338. It also gave a relative viability (NCI-H2023; first compound 0.1265 µM) of 0.281, a relative viability (NCI-H2023; first compound 0.4 µM) of 0.225 and a relative viability (NCI-H2023; first compound 1.265 µM) of 0.135. It also gave a relative viability (NCI-H2023; first compound 4 µM) of 0.105, a relative viability (NCI-H1734; first compound 0.04 µM) of 0.365 and a relative viability (NCI-H1734; first compound 0.1265 µM) of 0.334. The relative viability (NCI-H1734; first compound 0.4 µM) was 0.313, the relative viability (NCI-H1734; first compound 1.265 µM) was 0.279 and the relative viability (NCI-H1734; first compound 4 µM) was 0.303. It also gave a relative viability (HOP-62; first compound 0.04 µM) of 0.424, a relative viability (HOP-62; first compound 0.1265 µM) of 0.323 and a relative viability (HOP-62; first compound 0.4 µM) of 0.152. For the same compound, the relative viability (HOP-62; first compound 1.265 µM) was 0.106, the relative viability (HOP-62; first compound 4 µM) was 0.0968 and the relative viability (NCI-H727; first compound 0.04 µM) was 0.63. It also gave a relative viability (NCI-H727; first compound 0.1265 µM) of 0.576, a relative viability (NCI-H727; first compound 0.4 µM) of 0.61 and a relative viability (NCI-H727; first compound 1.265 µM) of 0.538. The relative viability (NCI-H727; first compound 4 µM) was 0.581, the relative viability (NCI-H2126; first compound 0.04 µM) was 0.345 and the relative viability (NCI-H2126; first compound 0.1265 µM) was 0.401. For the same compound, the relative viability (NCI-H2126; first compound 0.4 µM) was 0.368, the relative viability (NCI-H2126; first compound 1.265 µM) was 0.348 and the relative viability (NCI-H2126; first compound 4 µM) was 0.37. The relative viability (EMC-BAC-2; first compound 0.04 µM) was 0.496, the relative viability (EMC-BAC-2; first compound 0.1265 µM) was 0.441 and the relative viability (EMC-BAC-2; first compound 0.4 µM) was 0.421. It also gave a relative viability (EMC-BAC-2; first compound 1.265 µM) of 0.332, a relative viability (EMC-BAC-2; first compound 4 µM) of 0.315 and a relative viability (H3255; first compound 0.04 µM) of 0.303. It also gave a relative viability (H3255; first compound 0.1265 µM) of 0.321, a relative viability (H3255; first compound 0.4 µM) of 0.283 and a relative viability (H3255; first compound 1.265 µM) of 0.247. It also gave a relative viability (H3255; first compound 4 µM) of 0.228, a relative viability (NCI-H2347; first compound 0.04 µM) of 0.446 and a relative viability (NCI-H2347; first compound 0.1265 µM) of 0.393. The relative viability (NCI-H2347; first compound 0.4 µM) was 0.385, the relative viability (NCI-H2347; first compound 1.265 µM) was 0.327 and the relative viability (NCI-H2347; first compound 4 µM) was 0.32. It also gave a relative viability (NCI-H1915; first compound 0.04 µM) of 0.542, a relative viability (NCI-H1915; first compound 0.4 µM) of 0.37 and a relative viability (NCI-H1915; first compound 1.265 µM) of 0.295. It also gave a relative viability (NCI-H1915; first compound 4 µM) of 0.179, a relative viability (EPLC-272H; first compound 0.04 µM) of 0.315 and a relative viability (EPLC-272H; first compound 0.1265 µM) of 0.252. It also gave a relative viability (EPLC-272H; first compound 0.4 µM) of 0.308, a relative viability (EPLC-272H; first compound 1.265 µM) of 0.26 and a relative viability (EPLC-272H; first compound 4 µM) of 0.224. The relative viability (SK-LU-1; first compound 0.04 µM) was 0.405, the relative viability (SK-LU-1; first compound 0.1265 µM) was 0.359 and the relative viability (SK-LU-1; first compound 0.4 µM) was 0.35. It also gave a relative viability (SK-LU-1; first compound 1.265 µM) of 0.282 and a relative viability (SK-LU-1; first compound 4 µM) of 0.239.
